Test results taken from publication PMC6154692, “Determination of Vancomycin in Human Serum by Cyclodextrin-Micellar Electrokinetic Capillary Chromatography (CD-MEKC) and Application for PDAP Patients” (Molecules : A Journal of Synthetic Chemistry and Natural …, 2017).

Key:
[1] = Stability of VCM in spiked human serum QC samples (bench-top, 30-day, autosampler, freeze-thaw), read by CD-MEKC; format: in vitro ADME; conditions: for Accuracy (%), autosampler stability / Accuracy (%), freeze–thaw stability / Accuracy (%), bench-top stability / Accuracy (%), 30-day stability: found vs initial concentration, CD-MEKC UV; for Accuracy (%), autosampler stability: 25 °C for 8 h; for Accuracy (%), autosampler stability / Accuracy (%), freeze–thaw stability / Accuracy (%), bench-top stability / Accuracy (%), 30-day stability / Measured Concentration (Mean ± SD), bench-top stability / Measured Concentration (Mean ± SD), autosampler stability / Measured Concentration (Mean ± SD), freeze–thaw stability / Measured Concentration (Mean ± SD), 30-day stability: n = 5; for Accuracy (%), freeze–thaw stability: three freeze–thaw cycles; for Accuracy (%), bench-top stability: 25 °C for 2 h; for Accuracy (%), 30-day stability: −80 °C, 30 days; for Measured Concentration (Mean ± SD), bench-top stability: ambient temperature (25 °C) for 2 h; for Measured Concentration (Mean ± SD), bench-top stability / Measured Concentration (Mean ± SD), autosampler stability / Measured Concentration (Mean ± SD), freeze–thaw stability / Measured Concentration (Mean ± SD), 30-day stability: CD-MEKC UV 210 nm; for Measured Concentration (Mean ± SD), autosampler stability: spiked human serum sample, kept at ambient temperature (25 °C) for 8 h; for Measured Concentration (Mean ± SD), freeze–thaw stability: after three freeze–thaw cycles; for Measured Concentration (Mean ± SD), 30-day stability: stored at −80 °C for 30 days
Protocol: Analyte stability determinations comprised short-term temperature stability (bench-top stability), long-term stability (30-day stability), autosampler stability, and freeze-thaw cycles stability, which were evaluated by analyzing three QC levels in VCM. The peak areas obtained from both stability tests were compared with the peak areas obtained with freshly prepared samples. The mean values and standard deviations of the ratios between the concentrations found and initial concentration were used for stability evaluation.
The BGE used in this study was 25 mM borate buffer with 50 mM SDS and 2% sulfobutyl-β-CD (pH 9.50). It was prepared by weighting appropriate amounts of Na2B4O7∙10H2O, SDS, and sulfobutyl-β-CD, followed by thoroughly mixing and dissolving with 100 mL deionized water. NaOH (1 mol/L) was used for adjusting pH to 9.50. BGE solutions were prepared freshly every day and filtered through a 0.45 μm hydrophilic cellulose membrane filter prior to use. The separation voltage was 15 kV (+) → (−). Hydrodynamic injection mode was performed at a pressure of 0.5 psi for 5 s. The capillary was conditioned by rinsing with 0.1 mol/L NaOH (1 min) followed by BGE (5 min) sequentially between the runs in order to maintain an active and reproducible inner surface.
Standard stock solution (1 mg/mL) of VCM and the IS were prepared in methanol. Working standard solutions (ranging from 10 to 500 µg/mL) were prepared daily by diluting the stock solution to the desired concentration with deionized water. The IS solution was prepared by deionized water at the concentration of 200 µg/mL. The standard solutions were stored in brown glass vials to protect from light at 4 °C. Calibration samples were obtained by diluting standard working solutions (10 μL) with drug-free human control serum (90 μL), to span a calibration standard range of 1–100 µg/mL for VCM. QC samples (3, 15, 80 µg/mL) were independently prepared by spiking an appropriate amount of the working standard solution in drug-free human control serum.
A simple and rapid sample preparation was applied by protein precipitation in SiroccoTM 96-well filtration plate (Waters Corp., Milford, MA, USA). Standard curve samples (100 μL), QC samples, and subject serum samples were added individually into 96-well plates by an eight-channel hand-held pipettor. To precipitate the serum protein, 200 μL ACN (acetonitrile) solution c ontaining 100 μg/mL of the IS solution was added to each sample (standards, QCs, and samples). Sirocco plates were capped and mixed by vortexing for 3 min and held for 15 min, subsequently placed on a vacuum manifold, and filtered to remove any precipitated material. The filtrate was collected into another 96-well plate and was evaporated to dryness with a nitrogen flow at 37 °C (TURBOVAP 96, Biotage, Uppsala, Sweden). All dry residues were reconstituted by the addition of 50 μL water. Finally, the plates were vortex mixed for 1 min, followed by centrifugation for 10 min at 12,000 rpm at 4 °C using a 5804 R Eppendorf refrigerated centrifuge (Hamburg, Germany). The supernatant was transferred to the autosampler for injection onto the CE.

PDAP patients = test: Clinical safety observation in PDAP patients treated with i.p. vancomycin; format: in vivo, human
Protocol: Patients were treated with intraperitoneal (i.p.) vancomycin (Vancocin, Eli Lilly) for 1.0 g every 5–7 days. Nine PDAP patients’ samples were collected, and the trough concentrations of VCM were measured. […] Side effects were not observed in patients who were treated with VCM. The 15–20 µg/mL range was determined in three samples (17.06 µg/mL, 15.39 µg/mL, and 19.25 µg/mL), which was reported as the effective treatment window. […] In view of patients’ residual renal function and peritoneal permeability, levels <15 µg/mL were found in four samples (12.88 µg/mL, 5.48 µg/mL, 8.90 µg/mL, and 9.30 µg/mL). ISPD recommends that re-dosing is appropriate once serum vancomycin levels go below 15 µg/mL.

[2] = set-up: method as in doi:10.1016/0378-5173(93)90252-B; conditions: cited from earlier work
Excerpt: The pH value of BGE is an important factor in CE. VCM is a glycopeptide antibiotic with quite a complex structure. It contains six functional groups which participate in acid-base equilibria. Namely, its net charge in solution strongly depends on the solution pH. […] Protonations of amino (primary and secondary amino) and three phenolate groups take place between pH 13 and 5 in multiply overlapping stages. […] Owing to t ...

[3] = intraperitoneal, in the presence of peritonitis; ref guideline of ISPD; cited from earlier work
[4] = spiked human serum, HQC 80 µg/mL
[5] = spiked human serum, LQC 3 µg/mL
[6] = spiked human serum, MQC 15 µg/mL

In the case of `CN[C@H](CC(C)C)C(=O)N[C@H]1C(=O)N[C@@H](CC(N)=O)C(=O)N[C@H]2C(=O)N[C@H]3C(=O)N[C@H](C(=O)N[C@H](C(=O)O)c4cc(O)cc(O)c4-c4cc3ccc4O)[C@H](O)c3ccc(c(Cl)c3)Oc3cc2cc(c3O[C@@H]2O[C@H](CO)[C@@H](O)[C@H](O)[C@H]2O[C@H]2C[C@](C)(N)[C@H](O)[C@H](C)O2)Oc2ccc(cc2Cl)[C@H]1O` [VCM, vancomycin], the “Stability in spiked serum samples (in words)” value ([1]; bench-top, 30-day, autosampler and freeze-thaw conditions, three QC levels) is reported as “stable”, the “Accuracy (%), autosampler stability” value ([1]; HQC 80 µg/mL) is reported as 105.70% and the “Accuracy (%), freeze–thaw stability” value ([1]; HQC 80 µg/mL) is reported as 108.80%. The “Accuracy (%), autosampler stability” value ([1]; LQC 3 µg/mL) was 103.80%, the “Accuracy (%), freeze–thaw stability” value ([1]; LQC 3 µg/mL) was 110.40% and the “Accuracy (%), autosampler stability” value ([1]; MQC 15 µg/mL) was 107.10%. The “Accuracy (%), freeze–thaw stability” value ([1]; MQC 15 µg/mL) was 104.60%, the “Accuracy (%), bench-top stability” value [1, 4] was 108.40% and the “Accuracy (%), 30-day stability” value [1, 4] was 106.60%. For the same compound, the “Accuracy (%), bench-top stability” value [1, 5] was 107.80%, the “Accuracy (%), 30-day stability” value [1, 5] was 104.70% and the “Accuracy (%), bench-top stability” value [1, 6] was 102.70%. For the same compound, the “Accuracy (%), 30-day stability” value [1, 6] was 104.90%, the “Measured Concentration (Mean ± SD), bench-top stability” value ([1]; spiked human serum (table title: plasma), LQC 3 µg/mL) was 3.271 ± 0.02 µg/mL and the “Measured Concentration (Mean ± SD), autosampler stability” value ([1]; HQC 80 µg/mL) was 85.57 ± 0.29 µg/mL. The “Measured Concentration (Mean ± SD), autosampler stability” value ([1]; LQC 3 µg/mL) was 3.15 ± 0.01 µg/mL, the “Measured Concentration (Mean ± SD), autosampler stability” value ([1]; MQC 15 µg/mL) was 16.26 ± 0.09 µg/mL and the “Measured Concentration (Mean ± SD), freeze–thaw stability” value [1, 4] was 88.01 ± 0.23 µg/mL. The “Measured Concentration (Mean ± SD), bench-top stability” value [1, 4] was 87.69 ± 0.38 µg/mL, the “Measured Concentration (Mean ± SD), 30-day stability” value [1, 4] was 86.24 ± 0.52 µg/mL and the “Measured Concentration (Mean ± SD), freeze–thaw stability” value [1, 5] was 3.35 ± 0.02 µg/mL. The “Measured Concentration (Mean ± SD), 30-day stability” value [1, 5] was 3.18 ± 0.01 µg/mL, the “Measured Concentration (Mean ± SD), freeze–thaw stability” value [1, 6] was 15.88 ± 0.07 µg/mL and the “Measured Concentration (Mean ± SD), bench-top stability” value [1, 6] was 15.59 ± 0.09 µg/mL. The “Measured Concentration (Mean ± SD), 30-day stability” value [1, 6] was 15.92 ± 0.08 µg/mL, the Side effects (PDAP patients; PDAP patients treated with VCM, i.p. 1.0 g every 5–7 days) was “not observed” and the “Changes in renal function before and after treatment” value (PDAP patients; nine PDAP patients, i.p. vancomycin 1.0 g every 5–7 days) was “No significant changes”. The pI value [2] was “about 7.10” and the “Fraction of i.p. vancomycin absorbed” value [3] was “approximately 90%”.
